Drawing on BindingDB's records for doi:10.1016/j.bmcl.2012.09.081 (2012), this text covers IC50 for one compound.

This assay in a line: Inhibition of tobacco hornworm V-ATPase c subunit.

The structures appear in SMILES notation.

Compound `CNC(=O)O[C@@H](CC(C)C)c1nc([C@H]2OC(=O)/C(C)=C/C/C(C)=C/[C@@H](OC(=O)c3ccc(C4(C(F)(F)F)N=N4)cc3)[C@@H](C)\C=C(C)/C=C(C)\C=C\[C@@H](OC(=O)c3ccc(C4(C(F)(F)F)N=N4)cc3)[C@H](C)[C@H](OC)/C(C)=C/C=C/[C@@H]2C)cs1` gave a concentration for half-maximal inhibition (IC50) of 600 nM.

One may read the IC50 as the point on the concentration scale where inhibition reaches its midpoint. Low values mean higher potency, high ones lower potency.
